Assay results: EP1785417A2, “Novel non-psychotropic cannabinoids” (priority 2000, dated 2001)

Key:
PGE2 = assay: Inhibition of prostaglandin synthesis (PGE2) in LPS-stimulated macrophage cell cultures; format: cell-based; settings: LPS-stimulated macrophages
Excerpt: Evaluation of the therapeutic effects of the novel PRS-211 compounds has now been carried out in a series of experimental systems to support the utility of these drugs as neuroprotectants, anti-inflammatory agents and anti-oxidative agents. These effects have been evaluated both in vitro and in vivo, and have been corroborated utilizing the following systems: • (a) Binding to the NMDA receptor linked channel: Non competitive antagonists of NMDA, the primary example of which is the compound MK-801, bind to a site within the NMDA receptor channel thus preventing the activation of the receptor-channel complex and the consequent neurotoxicity. The ability of various compounds to compete with the binding of tritium labeled MK-801 to brain membranes is considered a measure of their potency as NMDA non-competitive antagonists. • (b) Inhibition of prostaglandin production: The inhibitory effect of the new derivatives of Dexanabinol on prostaglandin synthesis is evaluated in macrophage cell cultures following LPS exposure to induce the inflammatory response. These assays are an indication of the anti-inflammatory activity of the individual analogs. • (c) Inhibition of Tumor Necrosis Factor Alpha: Specific aspects of the inflammatory response cascade are mediated by the cytokine TNFα. Inhibition of TNFα production and/or inhibition of TNFα release by the new analogs are assayed in macrophage cell cultures activated with LPS. This serves as another indication of the general anti-inflammatory potential of the novel compounds. • (d) Nitric Oxide Assay: As one aspect of the anti-oxidative potential of the novel analogs they were tested for their ability to inhibit the enzyme nitric oxide synthase (NOS). This assay can also serve as another indication of the anti-inflammatory cascade, as well as the anti-oxidative mechanisms. • (e) Ear Edema model: The anti-inflammatory activity of the new analogs is screened using an ear edema model in mice. This test system utilizes Croton oil or Arachidonic acid as inflammation inducers. The ability of the test compounds to prevent or diminish the inflammatory response to these stimulants is indicative of their systemic anti-inflammatory capability. • (f) Improved clinical outcome after closed head injury in rats: Severe head injury is associated with high mortality and severe neurological impairment. Animals subjected to head trauma in a controlled fashion serve as models in which to test drugs of therapeutic potential. Test compounds can be evaluated both for improved clinical outcome and for reduction of edema induced by closed head injury. The ability of compounds to reduce the severity of neurological symptoms and to reduce brain edema is considered a measure of their potency in reducing brain damage. • (g) Transient Middle cerebral artery occlusion (MCAo): The middle cerebral artery is the cerebral blood vessel most susceptible to stroke in humans. In animals, coagulation, permanent ligation or permanent placement of an occluding thread in the artery produces a permanent focal stroke affecting the MCA territory. Transient ligation or occlusion results in transient focal stroke. Both transient and permanent focal strokes result in varying degrees of edema and infarction in the affected brain regions. The ability of compounds to reduce the volumes of edema and infarction is considered a measure of their potential as anti-stroke treatment. • (h) Optic Nerve Crush: Application of mechanical pressure to the rat optical nerve results in crush injury of the axons, which is accompanied by immediate changes in oxidative metabolism and delayed axonal death and blindness. […]

transient MCAo in rats = assay: Transient MCAo evaluated by the staircase test; format: in vivo; settings: for reduction of infarct volume compared to vehicle: not statistically different
Experimental: The materials for this procedure are identical to those from Physiological Example 5, except for the different concentrations of PRS-211,095. The procedural differences are as follows: • Male Sprague Dawley rats, 230-270 gr (Harlan, Israel) were used. The following compounds and their respective concentrations were tested: • Dexanabinol and analogs PRS-211,095 and PRS-211,220 in PEG ethanol cosolvent 50 mg/ml. Dexanabinol, the analogs and their vehicle were diluted in Intralipid® 20% (Pharmacia) prior to drug administration.
The procedure is essentially as described in Montoya et al. (Montoya, Campbell-Hope, Pemberton and Dunnet, J. Neurosci. Meth. 36:219-228, 1991) Animals were kept under mild food deprivation for 3-5 days, receiving 15-gr. food once a day (between 16:00 and 17:00) and free access to water. Animals were trained prior to the test for 3-5 days according to the protocol of Sharkey et. al. (Sharkey, Crawford, Butcher and Martson, Stroke 27:2282-2286, 1996).
In brief, the staircase box contains two rows of seven stairs in each. Two 45 mg food pellets were placed on each step. Animals were placed in the box for 15 minutes sessions. At the end of the session the number of eaten (grasped) and displaced pellets was counted and recorded. Animals were tested twice a day, 4 hours apart. The first session was performed between 8-9 AM and second between 12-13 PM. The animals were trained until they grasped (ate) at least 8 pellets from each set of stairs for two consecutive sessions. Up to one week after the end of the successful training session the animals underwent transient MCAo. Transient MCAo was performed in essentially the same manner as described in Physiological example 5 with the following modification at step i: • Two minutes prior to thread removal rats were re-anesthetized and administered IV with Dexanabinol 5mg/kg, analogs PRS-211,220 or PRS-211,095 at 0.5, 2.5, 5 or 10 mg/kg or vehicle 5 ml/kg. One additional group was sham-treated.
Animals were allowed to recover from the surgery for five days. The mild food deprivation was re-employed during the days following the ischemic insult. They were tested in the staircase box using the above method for 9-12 days. Animals were weighed twice a week during this period.
At the end of the evaluation period, animals were euthanized with pentobarbitone 100 mg/kg IP. The animals were perfused through the heart with heparinized 4% formaldehyde solution in PBS (pH 7.4). Brains were then removed, and kept in the same solution for at least 24h. Then the brains - from the rostral side of the cortex to the cerebellum- were sunk in 30% sucrose in PBS, cryosectioned (20 µm), dried and stained with thionin for histological evaluation of the brain infarct volume. Eight sections at the levels of: 3.3;+2.8;+1.8; +0.8; -0.4;-1.4; -2.2; and -3.4 from Bregma were measured (Swanson, Rat Brain Atlas, 1992). Sections were captured by a CCD camera (V-tech MP-470) and image analyzed (Scion image 1.62A). Infarct size was determined from the series of the 8 sections by either calculation of the infarct volume (mm3) by summing the series of mean lesion areas of two adjacent sections multiplied by the distance between them or calculation of the mean infarct size as percentage of the contralateral hemisphere size; calculation of the mean of the surviving ipsilateral side as percentage of the contralateral hemisphere size; calculation of the mean ipsilateral side ventricle as percentage of the contralateral hemisphere ventricle.
• a. The infarct size was compared using ANOVA (analysis of variance) followed by Duncan's post hoc test. • b. […]

SMILES | inhibition at 10 µM (PGE2) | contralateral performance, pellet consumption (transient MCAo in rats; 0.5 mg/kg) | contralateral performance, pellet consumption (transient MCAo in rats; 2.5 mg/kg) | infarct volume, protection (transient MCAo in rats; 2.5 mg/kg, histopathology) | contralateral performance, pellet consumption (transient MCAo in rats; 5 mg/kg) | reduction of infarct volume compared to vehicle (transient MCAo in rats; 5 mg/kg, histopathology) | contralateral performance, pellet consumption (transient MCAo in rats; 10 mg/kg) | Mortality Rate(%) (transient MCAo in rats; Table 4, 0.5 mg/kg IV) | No. Dead Animals (transient MCAo in rats; Table 4, 0.5 mg/kg IV) | Mortality Rate(%) (transient MCAo in rats; Table 4, 2.5 mg/kg IV) | No. Dead Animals (transient MCAo in rats; Table 4, 2.5 mg/kg IV) | Mortality Rate(%) (transient MCAo in rats; Table 4, 5 mg/kg IV) | No. Dead Animals (transient MCAo in rats; Table 4, 5 mg/kg IV) | Mortality Rate(%) (transient MCAo in rats; Table 4, 10 mg/kg IV) | No. Dead Animals (transient MCAo in rats; Table 4, 10 mg/kg IV) | Mortality Rate(%) (transient MCAo in rats; Table 5, 0.5 mg/kg IV) | No. Dead Animals (transient MCAo in rats; Table 5, 0.5 mg/kg IV)
CCCCCCC(C)(C)c1cc(O)c2c(c1)OC(C)(C)[C@H]1CC=C(Cn3ccnc3)C[C@H]21 (single isomer, unassigned) [211,095-000] | 72% | moderately improved pellet consumption | moderately improved pellet consumption | No protection | robust improvement | 35% | robust improvement | 21% | 3 | 30% | 3 | 0% | 0 | 9% | 1 |  | 
CCCCCCC(C)(C)c1cc(O)c2c(c1)OC(C)(C)[C@H]1CC=C(CO)C[C@H]21 [211,007-000 HU-211, 1,1 dimethyl heptyl-(3 S,4S)-7-hydroxy-Δ^6-tetrahydrocannabinol, reference compound] | 54% | No improvement |  |  |  | 35% |  |  |  |  |  | 0% | 0 |  |  | 36% | 4
